Assay results: patent US12552790B2, “Positive modulators of the muscarinic acetylcholine receptor M4” (Vanderbilt University, priority 2023, dated 2026)

Biological target: T1, Human M2 (Homo sapiens, UniProt P08172)
T1 construct: expressed in transfected cells; host or cells: CHO-K1
T1 sequence (P08172 1-466): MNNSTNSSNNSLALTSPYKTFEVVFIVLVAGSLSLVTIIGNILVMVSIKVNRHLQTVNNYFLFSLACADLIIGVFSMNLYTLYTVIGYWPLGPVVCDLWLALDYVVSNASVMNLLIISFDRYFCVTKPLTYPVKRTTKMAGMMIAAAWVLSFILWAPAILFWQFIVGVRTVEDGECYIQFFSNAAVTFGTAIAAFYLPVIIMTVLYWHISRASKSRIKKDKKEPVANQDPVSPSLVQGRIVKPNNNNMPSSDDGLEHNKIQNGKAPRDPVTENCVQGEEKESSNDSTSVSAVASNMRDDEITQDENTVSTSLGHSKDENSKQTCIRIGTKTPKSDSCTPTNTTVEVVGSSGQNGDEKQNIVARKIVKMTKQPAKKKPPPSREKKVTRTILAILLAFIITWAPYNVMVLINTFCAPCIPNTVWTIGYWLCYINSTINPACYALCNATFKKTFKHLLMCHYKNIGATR
Test: M2 cell-based functional assay, calcium mobilization (selectivity)
Conditions: for Emax at 30 µM: % ACh maximum at 30 μM; for EC50: M2 cell-based functional assay, calcium flux
Procedure, shortened: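 CHO-K1 cells stably expressing receptor, Fluo-4-AM loaded (final 1.15 μM), compound added (140 s) then ACh at EC20 and EC80; Ca flux read at 480/530 nm. Normalized to max ACh response; agonist, PAM (EC20 increase) and antagonist (EC80 decrease) activity fitted by four-parameter logistic for EC50 and Emax.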

Row | Emax at 30 µM | EC50 | Compound
1 | 54% | 1.52 µM | [2H]C1([2H])Oc2ccc(OC3CCN(c4nc5nn(C)c(=O)n5c(C)c4C)CC3)cc2OC1([2H])[2H] [Compound A10, 7-(4-((2,3-dihydrobenzo[b][1,4]dioxin-6-yl-2,2,3,3-d4)oxy)piperidin-1-yl)-2,5,6-trimethyl-[1,2,4]triazolo[4,3-a]pyrimidin-3(2H)-one]
2 | 68% | 0.499 µM | [2H]C1([2H])Oc2ccc(OC3CCN(c4nc5nn(C)c(=O)n5cc4C)CC3)cc2OC1([2H])[2H] [Compound A6, 7-(4-((2,3-dihydrobenzo[b][1,4]dioxin-6-yl-2,2,3,3-d4)oxy)piperidin-1-yl)-2,6-dimethyl-[1,2,4]triazolo[4,3-a]pyrimidin-3(2H)-one]
3 | 61% | 0.658 µM | [2H]C1([2H])Oc2ccc(OC3CCN(c4nc5c(cc4C)C(=O)NC5)CC3)cc2OC1([2H])[2H] [Compound 3, 2-(4-((2,3-dihydrobenzo[b][1,4]dioxin-6-yl-2,2,3,3-d4)oxy)piperidin-1-yl)-3-methyl-6,7-dihydro-5H-pyrrolo[3,4-b]pyridin-5-one]
